The source made the active and inactive calls.
Legend:
[1] = target: T1, Polyadenylate-binding protein 1 (Homo sapiens, UniProt P11940); test: PABP1 MLLE–PAM2 binding inhibitor potency, dose response, biochemical, fluorescence polarization, FITC-PAM2 peptide (AID 602259); assay type: functional; settings: read-out: IC50_Mean
[2] = target: T1, Polyadenylate-binding protein 1; test: PABP1 MLLE–PAM2 interaction inhibitors, dose response, miRNA deadenylation inhibitor project, biochemical, fluorescence polarization, Cy5-PAM2 peptide, secondary (AID 602260); assay type: functional; settings: read-out: IC50_Mean
[3] = target: T2, Corticotropin-releasing factor receptor 2/Corticotropin-releasing factor-binding protein (Homo sapiens, UniProt P24387+Q13324); test: activators of CRF receptor 2 with binding protein – uHTS hits, confirmation (AID 602473); assay type: functional; settings: read-out: EC50_Mean
T2 sequence (Q13324 whole entry): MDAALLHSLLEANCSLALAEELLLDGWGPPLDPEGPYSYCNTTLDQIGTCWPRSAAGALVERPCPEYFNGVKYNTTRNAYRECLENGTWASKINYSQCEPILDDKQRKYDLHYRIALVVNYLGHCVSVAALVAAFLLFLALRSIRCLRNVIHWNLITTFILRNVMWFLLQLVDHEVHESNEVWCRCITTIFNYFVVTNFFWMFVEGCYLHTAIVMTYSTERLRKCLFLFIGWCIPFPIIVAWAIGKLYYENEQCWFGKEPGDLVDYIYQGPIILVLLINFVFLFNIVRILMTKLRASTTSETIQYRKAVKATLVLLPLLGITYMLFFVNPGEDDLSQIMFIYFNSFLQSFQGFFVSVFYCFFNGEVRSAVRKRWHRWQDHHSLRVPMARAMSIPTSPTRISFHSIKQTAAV
T2 sequence (P24387 whole entry): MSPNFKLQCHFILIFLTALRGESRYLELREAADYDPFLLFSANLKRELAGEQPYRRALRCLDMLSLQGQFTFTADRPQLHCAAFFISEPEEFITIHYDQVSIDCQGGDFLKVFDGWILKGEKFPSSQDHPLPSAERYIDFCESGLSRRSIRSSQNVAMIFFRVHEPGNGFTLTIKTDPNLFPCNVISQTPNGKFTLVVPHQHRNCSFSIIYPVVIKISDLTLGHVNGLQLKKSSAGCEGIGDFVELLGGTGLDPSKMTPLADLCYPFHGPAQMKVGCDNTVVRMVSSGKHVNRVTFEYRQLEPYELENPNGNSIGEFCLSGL

[4] = target: T2, Corticotropin-releasing factor receptor 2/Corticotropin-releasing factor-binding protein; test: Dose Response confirmation of uHTS hits for small molecule antagonists of the CRF-binding protein and CRF-R2 receptor complex.; assay type: functional; settings: read-out: IC50_Mean
cells = assay type: functional
[5] = growth suppression of PTEN-null colon cells, dose response, cell-based, HCT116 PTEN knockout (AID 1047); assay type: functional;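 note: HCT116 colon tumor cells with PTEN knocked out; cells exposed to compound for 60 hours before readout; potency for loss of cell viability measured by luminescence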
[6] = growth suppression of beta-catenin-knockout colon cells, dose response, cell-based, HCT116, human colon tumor (AID 1045); assay type: functional;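 note: HCT116 colon tumor cells with beta catenin knocked out; cells exposed to compound for 60 hours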
[7] = Luminescence Cell-Based Dose Confirmation HTS to Identify Inhibitors of Platelet Dense Granule Release. [Related pubchem assays: 1663 (Primary HTS), 1678 (Summary of Project)]; assay type: functional
[8] = target: Luciferin 4-monooxygenase (Photinus pyralis, UniProt P08659); test: firefly luciferase enzyme inhibitors, dose response, biochemical, luminescence (AID 1891)
Paired box protein Pax-8 = Paired box protein Pax-8 (Homo sapiens, UniProt Q06710); test: inhibitors of PAX8-driven TPO luciferase reporter, dose response, RMG-I cells, cherry-pick (AID 687027); assay type: functional, cell-based;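 note: luciferase reporter driven by Pax8 target thyroperoxidase promoter measured by SteadyGlo luminescence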
[9] = ZM109 Env clade C HIV-1 fusion inhibitors, dose response, HeLa effector, CEM target cells, luciferase, cherry-pick (AID 652058); assay type: functional, cell-based
[10] = inhibitors of HIV Env-driven cell fusion, dose response, cherry-pick (AID 652057); assay type: functional, cell-based
[11] = inhibitors of clade B AD8 Env fusion, dose response, cell-based, cherry-pick (AID 652062); assay type: functional;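 note: luciferase signal from cell-cell fusion driven by HIV-1 clade B AD8 Env; potency is for inhibitors of fusion seen as a drop in luminescence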
Large T antigen = Large T antigen (Simian virus 40, UniProt P03070); assay type: functional, Betapolyomavirus macacae;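 note: Confirmatory-stage PubChem screen for compounds that inhibit SV40 T antigen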
[12] = P. falciparum Dd2 growth inhibitors, dose response, SYBR Green, cherry-picked samples (AID 1159567); assay type: functional, cell-based
[13] = target: T3, Rac GTPase-activating protein 1 (Homo sapiens, UniProt Q9H0H5); test: MgcRacGAP GTPase-activating activity inhibitors, confirmation, biochemical, ADP Hunter fluorescence, primary and confirmatory (AID 624330); assay type: functional
T3 sequence (Q9H0H5 whole entry): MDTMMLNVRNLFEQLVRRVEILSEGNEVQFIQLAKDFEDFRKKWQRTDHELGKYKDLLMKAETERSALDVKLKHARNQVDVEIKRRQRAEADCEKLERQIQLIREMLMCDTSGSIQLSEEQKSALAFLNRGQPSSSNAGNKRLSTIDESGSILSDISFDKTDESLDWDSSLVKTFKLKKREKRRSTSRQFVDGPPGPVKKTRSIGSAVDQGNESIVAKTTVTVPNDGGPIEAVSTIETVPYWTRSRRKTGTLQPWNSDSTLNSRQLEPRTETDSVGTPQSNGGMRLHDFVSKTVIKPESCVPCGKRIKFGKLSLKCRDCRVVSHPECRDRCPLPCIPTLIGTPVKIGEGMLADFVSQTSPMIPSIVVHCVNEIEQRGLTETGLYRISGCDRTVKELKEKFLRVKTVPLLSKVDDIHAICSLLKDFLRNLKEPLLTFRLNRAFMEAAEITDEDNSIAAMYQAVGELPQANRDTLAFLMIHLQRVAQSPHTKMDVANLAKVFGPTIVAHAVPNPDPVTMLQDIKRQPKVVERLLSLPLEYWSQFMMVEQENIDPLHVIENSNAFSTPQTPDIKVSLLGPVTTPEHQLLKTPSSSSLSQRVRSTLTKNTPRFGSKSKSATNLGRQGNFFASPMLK

Genome polyprotein = Genome polyprotein (dengue virus type 2, UniProt P29990); test: Dengue-2 NS5 methyltransferase inhibitors, primary screen, biochemical, confirmation dose response (AID 588689); assay type: functional
Genome polyprotein, sequence (P29990 2492-3391 limits assumed): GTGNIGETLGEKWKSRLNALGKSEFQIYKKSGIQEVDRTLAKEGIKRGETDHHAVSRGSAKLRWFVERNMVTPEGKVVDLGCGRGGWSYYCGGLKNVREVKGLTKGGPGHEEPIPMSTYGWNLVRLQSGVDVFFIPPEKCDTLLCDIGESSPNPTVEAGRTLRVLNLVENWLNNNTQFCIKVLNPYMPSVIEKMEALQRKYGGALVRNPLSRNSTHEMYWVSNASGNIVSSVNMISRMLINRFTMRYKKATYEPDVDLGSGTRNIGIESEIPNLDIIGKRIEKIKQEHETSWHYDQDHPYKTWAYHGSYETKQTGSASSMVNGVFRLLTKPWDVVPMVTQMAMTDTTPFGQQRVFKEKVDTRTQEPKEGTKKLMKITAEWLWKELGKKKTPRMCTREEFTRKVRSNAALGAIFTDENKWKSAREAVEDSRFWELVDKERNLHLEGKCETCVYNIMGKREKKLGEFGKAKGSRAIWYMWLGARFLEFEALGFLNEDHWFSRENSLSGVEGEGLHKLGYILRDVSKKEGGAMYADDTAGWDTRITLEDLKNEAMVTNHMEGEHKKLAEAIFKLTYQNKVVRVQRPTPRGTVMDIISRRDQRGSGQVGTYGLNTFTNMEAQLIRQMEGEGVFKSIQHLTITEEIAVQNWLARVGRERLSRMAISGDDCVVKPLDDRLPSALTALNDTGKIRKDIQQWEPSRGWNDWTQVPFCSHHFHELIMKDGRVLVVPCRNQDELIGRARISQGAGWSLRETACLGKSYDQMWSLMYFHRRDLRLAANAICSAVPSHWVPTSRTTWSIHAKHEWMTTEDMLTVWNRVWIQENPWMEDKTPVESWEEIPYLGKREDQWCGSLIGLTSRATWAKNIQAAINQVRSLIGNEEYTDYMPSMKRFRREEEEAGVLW

Luciferin 4-monooxygenase, sequence (P08659 whole entry): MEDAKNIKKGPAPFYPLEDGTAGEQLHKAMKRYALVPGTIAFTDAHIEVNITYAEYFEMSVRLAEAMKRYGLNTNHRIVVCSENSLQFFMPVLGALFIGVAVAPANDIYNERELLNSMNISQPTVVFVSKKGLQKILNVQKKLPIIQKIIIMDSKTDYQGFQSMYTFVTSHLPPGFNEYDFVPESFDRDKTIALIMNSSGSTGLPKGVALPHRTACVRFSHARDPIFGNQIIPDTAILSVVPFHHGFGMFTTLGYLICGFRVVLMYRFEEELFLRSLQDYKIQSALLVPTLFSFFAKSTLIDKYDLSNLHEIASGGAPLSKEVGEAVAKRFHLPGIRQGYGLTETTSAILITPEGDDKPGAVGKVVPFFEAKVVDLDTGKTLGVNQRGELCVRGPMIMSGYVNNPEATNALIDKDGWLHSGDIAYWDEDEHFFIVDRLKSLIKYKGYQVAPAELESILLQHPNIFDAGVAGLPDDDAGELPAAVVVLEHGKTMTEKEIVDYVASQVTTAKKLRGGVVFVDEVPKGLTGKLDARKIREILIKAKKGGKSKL
Paired box protein Pax-8, sequence (Q06710 whole entry, the tested form may be a part): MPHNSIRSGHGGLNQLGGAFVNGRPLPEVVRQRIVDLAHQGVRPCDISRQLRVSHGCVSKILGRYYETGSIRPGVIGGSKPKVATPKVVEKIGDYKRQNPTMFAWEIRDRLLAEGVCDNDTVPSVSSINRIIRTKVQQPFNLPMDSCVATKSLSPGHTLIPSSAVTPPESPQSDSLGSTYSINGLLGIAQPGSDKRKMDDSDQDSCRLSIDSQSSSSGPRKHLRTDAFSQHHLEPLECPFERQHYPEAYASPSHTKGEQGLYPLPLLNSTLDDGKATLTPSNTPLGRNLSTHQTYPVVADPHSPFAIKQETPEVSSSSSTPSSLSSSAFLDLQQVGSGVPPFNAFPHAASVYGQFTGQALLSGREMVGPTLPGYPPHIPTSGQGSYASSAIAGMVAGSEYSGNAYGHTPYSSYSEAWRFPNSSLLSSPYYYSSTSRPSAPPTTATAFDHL
Large T antigen, sequence (P03070 whole entry): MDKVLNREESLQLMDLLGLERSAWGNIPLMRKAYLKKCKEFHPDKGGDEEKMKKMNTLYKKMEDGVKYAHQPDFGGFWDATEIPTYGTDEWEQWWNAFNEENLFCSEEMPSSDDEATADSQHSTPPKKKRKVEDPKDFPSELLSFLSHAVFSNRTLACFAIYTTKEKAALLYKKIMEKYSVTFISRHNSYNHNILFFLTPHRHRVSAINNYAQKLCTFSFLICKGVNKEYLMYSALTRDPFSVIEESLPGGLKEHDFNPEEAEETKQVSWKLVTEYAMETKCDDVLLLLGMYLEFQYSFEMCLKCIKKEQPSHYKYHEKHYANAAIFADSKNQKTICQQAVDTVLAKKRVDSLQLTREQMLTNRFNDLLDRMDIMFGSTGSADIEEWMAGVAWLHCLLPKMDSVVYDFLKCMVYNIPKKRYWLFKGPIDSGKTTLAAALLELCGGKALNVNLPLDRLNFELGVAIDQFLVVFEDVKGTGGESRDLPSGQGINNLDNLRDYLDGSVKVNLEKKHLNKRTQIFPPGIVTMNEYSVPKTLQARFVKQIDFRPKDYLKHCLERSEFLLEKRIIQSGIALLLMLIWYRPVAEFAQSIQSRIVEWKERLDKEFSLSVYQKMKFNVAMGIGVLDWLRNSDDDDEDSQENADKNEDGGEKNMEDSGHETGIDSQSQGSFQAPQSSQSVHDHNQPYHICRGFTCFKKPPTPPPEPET
T1 sequence (P11940 whole entry): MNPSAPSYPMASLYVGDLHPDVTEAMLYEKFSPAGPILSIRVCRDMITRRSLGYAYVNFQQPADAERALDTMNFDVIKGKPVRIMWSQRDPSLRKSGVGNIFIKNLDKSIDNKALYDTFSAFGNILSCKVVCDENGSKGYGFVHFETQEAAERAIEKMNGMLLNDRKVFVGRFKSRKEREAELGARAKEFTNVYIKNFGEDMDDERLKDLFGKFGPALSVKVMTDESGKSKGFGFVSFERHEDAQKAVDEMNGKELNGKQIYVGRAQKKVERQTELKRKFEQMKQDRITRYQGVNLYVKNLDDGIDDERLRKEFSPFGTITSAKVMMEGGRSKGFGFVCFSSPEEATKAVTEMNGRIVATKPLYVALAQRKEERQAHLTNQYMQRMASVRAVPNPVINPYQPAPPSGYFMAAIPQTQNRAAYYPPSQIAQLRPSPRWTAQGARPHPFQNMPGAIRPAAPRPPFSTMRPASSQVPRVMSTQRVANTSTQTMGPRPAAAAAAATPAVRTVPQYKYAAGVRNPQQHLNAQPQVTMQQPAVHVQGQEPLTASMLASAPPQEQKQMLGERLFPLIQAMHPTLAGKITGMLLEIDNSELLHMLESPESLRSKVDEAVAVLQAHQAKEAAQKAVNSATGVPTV

## COc1c(S(=O)(=O)NCCCN2CCOCC2)ccc(Cl)c1Cl
[1]
  IC50: > 66 µM (inactive)
[2]
  IC50: > 66 µM (inactive)

## CCOC(=O)C1CCN(c2nc3cc(OC)ccc3cc2C#N)CC1
[3]
  EC50: > 53 µM (inactive)
[4]
  IC50: > 47.1 µM (inactive)
cells
  IC50: 8.59 µM (active)

## CCOc1ccccc1N=C(S)N(Cc1cc2ccc(C)cc2nc1O)CC1CCCN1CC (centres undefined)
[5]
  EC50: 20.5 µM (active)
[6]
  EC50: 17.4 µM (active)

## COc1ccc(SC[C@H](C)CN2CC[C@H](C(C)(C)C)CCC2=O)cc1
[1]
  IC50: > 66 µM (inactive)
[2]
  IC50: > 66 µM (inactive)

## CCN1CCSc2ccc(C(=O)NCc3ccccc3C)cc21
[7]
  EC50: > 112 µM (not active)
[8]
  EC50: > 112 µM (not active)

## C[C@H](CO)N1C[C@H](C)[C@H](CN(C)S(=O)(=O)c2cccs2)OCCCC[C@H](C)Oc2ccc(NC(=O)NC3CCCCC3)cc2C1=O
Paired box protein Pax-8
  AC50: 10.7 µM (active)

## Brc1ccc(-n2cc(-c3ccccc3)c3c(NN4CCOCC4)ncnc32)cc1
Paired box protein Pax-8
  AC50: 35.8 µM (active)

## O=C(C[C@@H]1CC[C@H](NC(=O)c2cccc(F)c2)[C@H](CO)O1)NCc1ccc(Oc2ccccc2)cc1
[9]
  AC50: 27 µM (active)
[10]
  AC50: 28.5 µM (active)
[11]
  AC50: 15.2 µM (active)

## CCc1ccc(C(=O)COC(=O)CNC(=O)c2ccco2)cc1
[7]
  EC50: > 112 µM (not active)
[8]
  EC50: > 112 µM (not active)

## COCCCNC(=O)COC(=O)c1ccc(-c2nc3ccccc3s2)s1
cells
  IC50: 10.5 µM (active)

## CCOc1ccccc1NC(=O)N1CCCC(c2nc(O)c3nnn(Cc4ccc(C)cc4)c3n2)C1 (centres undefined)
[5]
  EC50: 33.7 µM (active)
[6]
  EC50: 37.4 µM (active)

## Fc1c(F)c(F)c(/C=N/NC(=S)Nc2cccnc2)c(F)c1F
[1]
  IC50: > 66 µM (inactive)
[2]
  IC50: > 66 µM (inactive)

## Cc1nn2c(O)c3c(nc2c1-c1ccccc1)CCCC3
cells
  IC50: 11.8 µM (active)

## COc1cc(CNc2ccc3c(c2)OCCO3)ccc1OCC(N)=O
Large T antigen
  IC50: 40 µM (active)

## COc1ccc(S(=O)(=O)N(C)C[C@@H]2Oc3ccc(NC(=O)Cn4cnnn4)cc3CC(=O)N([C@H](C)CO)C[C@@H]2C)cc1
[9]
  AC50: 2.33 µM (active)
[10]
  AC50: 3.38 µM (active)
[11]
  AC50: 3.68 µM (active)

## O=C(CCCn1nnc2ccccc2c1=O)N[C@H](C(=O)O)c1ccccc1
[7]
  EC50: > 112 µM (not active)
[8]
  EC50: > 112 µM (not active)

## Cc1ccc(S(=O)(=O)Nc2ccc3c(c2)CC(=O)N([C@H](C)CO)C[C@H](C)[C@H](CN(C)S(=O)(=O)c2ccc(C)cc2)O3)cc1
[10]
  AC50: 1.19 µM (active)
[11]
  AC50: 4.36 µM (active)

## CCc1ccc(C(=O)NC(=S)Nc2ccc(N3CCOCC3)cc2)cc1
[1]
  IC50: > 66 µM (inactive)
[2]
  IC50: > 66 µM (inactive)

## O=C(Nc1ccc(O)cc1)c1ccc2c(c1)C(=O)N(Cc1ccco1)C2=O
Large T antigen
  IC50: 9.65 µM (active)

## COC(=O)c1ccc2c(=O)n(NC(=O)C(c3ccccc3)c3ccccc3)c(=S)[nH]c2c1
[1]
  IC50: > 66 µM (inactive)
[2]
  IC50: > 66 µM (inactive)

## CCCNC(=O)Nc1ccc2c(c1)OC[C@H](C)N(Cc1ccc(-c3ccccn3)cc1)C[C@H](C)[C@H](OC)CN(C)C2=O
[12]
  AC50: 5.09 µM (active)

## CCOC(=O)CNc1ccc(C(=O)OCC)cc1[N+](=O)[O-]
cells
  IC50: 13.3 µM (active)

## CO[C@H]1CN(C)C(=O)c2cc(NC(=O)Cc3ccccc3)ccc2OC[C@H](C)N(C(=O)c2ccccc2F)C[C@H]1C
[12]
  AC50: 4.94 µM (active)

## O=C(Nc1ccc(F)cc1)N1CCCCN2[C@H](C1)[C@H](c1ccc(C#Cc3ccccc3)cc1)[C@@H]2CO
[12]
  AC50: 5.46 µM (active)

## Oc1ccc(/C=N/NC(=S)NCC2CCCO2)cc1 (centres undefined)
Large T antigen
  IC50: 5.89 µM (active)
[13]
  IC50: 30.8 µM (active)

## O=C1NC(=O)C(=Cc2ccccc2OCCOc2ccc([N+](=O)[O-])cc2)C(=O)N1
Large T antigen
  IC50: 55.9 µM (active)

## COc1ccc(CCNC(=O)c2c(N)n(CCN3CCOCC3)c3nc4ccccc4nc23)cc1
[5]
  EC50: 13.4 µM (active)
[6]
  EC50: 18.4 µM (active)

## CN(C)c1ccc(NC(=O)COC(=O)CCC(=O)c2ccc(F)cc2)cc1
Large T antigen
  IC50: 19.2 µM (active)

## O=C(O)CN1C(=O)/C(=C\c2cc(Br)ccc2OCc2ccccc2F)SC1=S
Genome polyprotein
  IC50: 33.1 µM (active)

## CCn1nc([N+](=O)[O-])c(C(C#N)c2nc3ccccc3n2C)c(Cl)c1=O (centres undefined)
Genome polyprotein
  IC50: > 100 µM (active)

## CSCC[C@H](NC(=O)OC(C)(C)C)C(=O)N/N=C/c1cc2ccc(C)cc2nc1Cl
[5]
  EC50: 18.7 µM (active)
[6]
  EC50: 17.7 µM (active)

## COc1ccccc1-c1cc(-c2ccccc2)nc(SC(C(N)=O)c2ccccc2)c1C#N (centres undefined)
[5]
  EC50: 5.97 µM (active)
[6]
  EC50: 7.47 µM (active)

## C[C@H]1CCCCO[C@H](CN(C)Cc2ccc(C(F)(F)F)cc2)[C@@H](C)CN([C@@H](C)CO)C(=O)c2cc(NC(=O)Nc3ccc(F)cc3)ccc2O1
Paired box protein Pax-8
  AC50: 10.6 µM (active)

## COc1ccc2c3c([nH]c2c1)[C@H](CO)N(Cc1ccccc1OC)CC31CCN(S(=O)(=O)c2ccccc2)CC1
[12]
  AC50: 6.43 µM (active)

## Nc1nc2ncc(C(=O)c3cc(Cl)cc(Cl)c3O)cc2s1
Genome polyprotein
  IC50: > 100 µM (active)

## CCOC(=O)c1c(/N=C/c2cccc([N+](=O)[O-])c2O)sc(C)c1C
[1]
  IC50: 36.1 µM (inactive)
Genome polyprotein
  IC50: 77.1 µM (active)

## COc1ccc(Nc2nc(N)nc(CN3CCc4ccccc4C3)n2)cc1
[5]
  EC50: 41.9 µM (active)
[6]
  EC50: 33.2 µM (active)

## CN(C)c1ccc2c(c1)[C@H]1C[C@H](CC(=O)NCc3ccc(Oc4ccccc4)cc3)O[C@H](CO)[C@H]1O2
[12]
  AC50: 10.5 µM (active)

## COc1ccc2[nH]c3c(=O)n(CCCCC(=O)NCCN4CCCC4)c(=S)[nH]c3c2c1
Large T antigen
  IC50: 10.4 µM (active)

## COc1ccc(S(=O)(=O)N[C@H]2C=C[C@H](CC(=O)N3CCN(c4ccccc4)CC3)O[C@@H]2CO)cc1
[9]
  AC50: 36.8 µM (active)
[10]
  AC50: 26.7 µM (active)

## COc1cc(OC)cc(-c2nc3ccccc3c(=O)o2)c1
cells
  IC50: 8.58 µM (active)

## COc1ccc(CNC(=O)c2cc(S(=O)(=O)N3CCCC3)cn2C)cc1
[7]
  EC50: > 112 µM (not active)
[8]
  EC50: > 112 µM (not active)

## COc1cc(OC)cc(C(=O)NCC(=O)N2CCN(c3ccc(O)cc3)CC2)c1
Large T antigen
  IC50: 65.2 µM (active)

## COC(=O)C(O)(c1cn(C)c2ccccc12)C(F)(F)F (centres undefined)
[7]
  EC50: > 112 µM (not active)
[8]
  EC50: > 112 µM (not active)

## COc1ccc(NC(=O)Cn2cnc3c(cnn3-c3ccc(C)c(C)c3)c2=O)c(OC)c1
[5]
  EC50: 29.5 µM (active)
[6]
  EC50: 27.8 µM (active)

## COc1ccc(CCNC(=O)c2ccc3c(c2)SC2=NS(=O)(=O)CCN23)cc1
[7]
  EC50: > 112 µM (not active)
[8]
  EC50: > 112 µM (not active)

From ChEMBL document CHEMBL1201862, “PubChem BioAssay data set” (2004)
